Measured values taken from US20050043315A1, “Aminopyrimidine compounds, processes for their preparation and pharmaceutical compositions containing them” (priority 2002, published 2005).

Row | SMILES | melting point [°C]
1 | CC(C)n1nc(-c2c(-c3ccccc3)nc(N)nc2N2CCOCC2)ccc1=O [Example 127, 6-[2-Amino-4-(4-morpholinyl)-6-phenyl-5-pyrimidinyl]-2-isopropyl-3(2H)-pyridazinone] | 251 to 253
2 | Cn1nc(-c2cnc(N)nc2-c2ccc(Cl)cc2)ccc1=O [Example 61, 6-[2-Amino-4-(4-chlorophenyl)-5-pyrimidinyl]-2-methyl-3(2H)-pyridazinone] | 264
3 | Cc1ccccc1-c1nc(N)ncc1-c1ccc(=O)n(C)n1 [Example 70, 6-[2-Amino-4-(2-methylphenyl)-5-pyrimidinyl]-2-methyl-3(2H)-pyridazinone] | 229
4 | CC(C)Oc1nc(N)nc(-c2ccccc2)c1-c1ccc(=O)n(C(C)C)n1 [Example 82, 6-(2-Amino-4-isopropoxy-6-phenyl-5-pyrimidinyl)-2-isopropyl-3(2H)-pyridazinone] | 176.5 to 177.5
5 | COc1ccccc1-c1nc(N)ncc1-c1ccc(=O)n(C)n1 [Example 72, 6-[2-Amino-4-(2-methoxyphenyl)-5-pyrimidinyl]-2-methyl-3(2H)-pyridazinone] | 225
6 | CC(C)n1nc(-c2c(NC3CC3)nc(N)nc2-c2ccccc2)ccc1=O [Example 112, 6-[2-Amino-4-(cyclopropylamino)-6-phenyl-5-pyrimidinyl]-2-isopropyl-3(2H)-pyridazinone] | 237 to 239
7 | CC(C)n1nc(-c2c(OC3CCOCC3)nc(N)nc2-c2ccccc2)ccc1=O [Example 97, 6-[2-Amino-4-phenyl-6-(tetrahydro-2H-pyran-4-yloxy)-5-pyrimidinyl]-2-isopropyl-3(2H)-pyridazinone] | 207 to 209
8 | CSc1nc(N)nc(-c2ccccc2)c1-c1ccc(=O)n(C(C)C)n1 [Example 78, 6-[2-amino-4-(methylthio)-6-phenyl-5-pyrimidinyl]-2-isopropyl-3(2H)-pyridazinone] | 221 to 222
9 | C#CCOc1nc(N)nc(-c2ccccc2)c1-c1ccc(=O)n(C(C)C)n1 [Example 85, 6-[2-amino-4-phenyl-6-(2-propynyloxy)-5-pyrimidinyl]-2-isopropyl-3(2H)-pyridazinone] | 145 to 146.6
10 | CC(C)n1nc(-c2cnc(N)nc2-c2c(F)cccc2F)ccc1=O [Example 237, 6-[2-Amino-4-(2,6-difluorophenyl)-5-pyrimidinyl]-2-isopropyl-3(2H)-pyridazinone] | 244
11 | Cn1nc(-c2cnc(N)nc2-c2cccc(O)c2)ccc1=O (hydrate or solvate) [Example 225, 6-[2-Amino-4-(3-hydroxyphenyl)-5-pyrimidinyl]-2-methyl-3(2H)-pyridazinone] | 285
12 | CC(C)n1nc(-c2c(-c3ccccc3)nc(N)n(CC(=O)OC(C)(C)C)c2=O)ccc1=O [Example 159, tert-butyl [2-amino-5-(1-isopropyl-6-oxo-1,6-dihydro-3-pyridazinyl)-6-oxo-4-phenyl-1(6H)-pyrimidinyl]acetate] | 138 to 141
13 | COc1nc(N)nc(-c2ccccc2)c1-c1ccc(=O)n(C)n1 [Example 144, 6-(2-Amino-4-methoxy-6-phenyl-5-pyrimidinyl)-2-methyl-3(2H)-pyridazinone] | 218 to 220
14 | CN(C)c1ncc(-c2ccc(=O)n(C)n2)c(-c2ccc(Cl)cc2)n1 [Example 246, 6-[4-(4-chlorophenyl)-2-(dimethylamino)-5-pyrimidinyl]-2-methyl-3(2H)-pyridazinone] | 166
15 | CC(C)n1nc(-c2c(-c3ccc(F)cc3)nc(N)nc2[S+](C)[O-])ccc1=O (stereo not drawn) [Example 151, 6-[2-amino-4-(4-fluorophenyl)-6-(methylsulfinyl)-5-pyrimidinyl]-2-isopropyl-3(2H)-pyridazinone] | 238 to 240
16 | CSc1nc(N)nc(-c2ccc(F)cc2)c1-c1ccc(=O)n(C(C)C)n1 [Example 148, 6-[2-amino-4-(4-fluorophenyl)-6-(methylthio)-5-pyrimidinyl]-2-isopropyl-3(2H)-pyridazinone] | 232 to 234
17 | CC(C)n1nc(-c2cnc(N)nc2-c2ccccc2OCCCF)ccc1=O [Example 215, 6-{2-Amino-4-[2-(3-fluoropropoxy)phenyl]-5-pyrimidinyl}-2-isopropyl-3(2H)-pyridazinone] | 200
18 | CCOc1ccccc1-c1nc(N)ncc1-c1ccc(=O)n(C(C)C)n1 [Example 189, 6-[2-Amino-4-(2-ethoxyphenyl)-5-pyrimidinyl]-2-isopropyl-3(2H)-pyridazinone] | 185
19 | COc1ccccc1-c1nc(N)ncc1-c1ccc(=O)[nH]n1 [Example 40, 6-[2-Amino-4-(2-methoxyphenyl)-5-pyrimidinyl]-3(2H)-pyridazinone] | 273
20 | COc1ccc(-c2nc(N)ncc2-c2ccc(=O)[nH]n2)cc1OC [Example 37, 6-[2-Amino-4-(3,4-dimethoxyphenyl)-5-pyrimidinyl]-3(2H)-pyridazinone] | 225
21 | COc1ccc(-c2nc(N)ncc2-c2ccc(=O)n(C)n2)cc1F [Example 63, 6-(2-Amino-4-(3-fluoro-4-methoxyphenyl)-5-pyrimidinyl]-2-methyl-3(2H)-pyridazinone] | 245
22 | CCCCCCOc1cccc(-c2nc(N)ncc2-c2ccc(=O)n(C(C)C)n2)c1 [Example 208, 6-{2-Amino-4-[3-(hexyloxy)phenyl]-5-pyrimidinyl}-2-isopropyl-3(2H)-pyridazinone] | 121
23 | CC(C)n1nc(-c2cnc(N)nc2-c2cccc(OCCN3CCOCC3)c2)ccc1=O [Example 222, 6-(2-Amino-4-{3-[2-(4-morpholinyl)ethoxy]phenyl}-5-pyrimidinyl)-2-isopropyl-3(2H)-pyridazinone] | 68

More lines, now with the values ahead:

Row | melting point [°C] | SMILES
24 | 167 to 168 | CC(C)n1nc(-c2c(-c3ccccc3)nc(N)nc2N(C)Cc2ccccc2)ccc1=O [Example 120, 6-{2-amino-4-[benzyl(methyl)amino]-6-phenyl-5-pyrimidinyl}-2-isopropyl-3(2H)-pyridazinone]
25 | 160 to 161 | CNc1ncc(-c2ccc(=O)n(C(C)C)n2)c(-c2ccccc2)n1 [Example 10, 2-Isopropyl-6-[2-(methylamino)-4-phenyl-5-pyrimidinyl]-3(2H)-pyridazinone]
26 | 255 to 258 | CC(C)n1nc(-c2c(-c3ccccc3)nc(N)nc2-n2ccnc2)ccc1=O [Example 130, 6-[2-amino-4-(1H-imidazol-1-yl)-6-phenyl-5-pyrimidinyl]-2-isopropyl-3(2H)-pyridazinone]
27 | 209 to 210.5 | CC(C)n1nc(-c2cnc(N)nc2-c2ccc(C(F)(F)F)cc2)ccc1=O [Example 26, 6-{2-Amino-4-[4-(trifluoromethyl)phenyl]-5-pyrimidinyl}-2-isopropyl-3(2H)-pyridazinone]
28 | 246 | CC(C)n1nc(-c2cnc(N)nc2-c2ccc(O)cc2)ccc1=O (hydrate or solvate) [Example 185, 6-[2-amino-4-(4-hydroxyphenyl)-5-pyrimidinyl]-2-isopropyl-3(2H)-pyridazinone]
29 | 239 to 240.5 | CC(C)n1nc(-c2cnc(N)nc2-c2ccccc2F)ccc1=O [Example 20, 6-[2-Amino-4-(2-fluorophenyl)-5-pyrimidinyl]-2-isopropyl-3(2H)-pyridazinone]
30 | 116 | Cc1ccc(C(=O)Nc2ncc(-c3ccc(=O)n(C(C)C)n3)c(-c3ccccc3)n2)cc1 [Example 173, N-[5-(1-isopropyl-6-oxo-1,6-dihydro-3-pyridazinyl)-4-phenyl-2-pyrimidinyl]-4-methylbenzamide]
31 | 163 to 164 | CC(C)n1nc(-c2c(Nc3ccccn3)nc(N)nc2-c2ccccc2)ccc1=O [Example 135, 6-[2-Amino-4-phenyl-6-(2-pyridinylamino)-5-pyrimidinyl]-2-isopropyl-3(2H)-pyridazinone]
32 | 204 to 205.5 | CNC(=O)COc1nc(N)nc(-c2ccccc2)c1-c1ccc(=O)n(C(C)C)n1 [Example 101, 2-{[2-amino-5-(1-isopropyl-6-oxo-1,6-dihydro-3-pyridazinyl)-6-phenyl-4-pyrimidinyl]oxy}-N-methylacetamide]
33 | 222 to 223 | CC(CO)n1nc(-c2cnc(N)nc2-c2ccccc2)ccc1=O (stereo not drawn) [Example 251, 6-(2-amino-4-phenyl-5-pyrimidinyl)-2-(2-hydroxy-1-methylethyl)-3(2H)-pyridazinone]
34 | 203 to 205 | CC(C)n1nc(-c2cnc(N)nc2-c2ccccc2Br)ccc1=O [Example 15, 6-[2-Amino-4-(2-bromophenyl)-5-pyrimidinyl]-2-isopropyl-3(2H)-pyridazinone]
35 | 87 to 92 | CC(C)n1nc(-c2c(OCC(=O)NC3CC3)nc(N)nc2-c2ccccc2)ccc1=O [Example 103, 2-{[2-Amino-5-(1-isopropyl-6-oxo-1,6-dihydro-3-pyridazinyl)-6-phenyl-4-pyrimidinyl]oxy}-N-cyclopropylacetamide]
36 | 268 to 270 | CNc1nc(N)nc(-c2ccccc2)c1-c1ccc(=O)n(C(C)C)n1 [Example 106, 6-[2-Amino-4-(methylamino)-6-phenyl-5-pyrimidinyl]-2-isopropyl-3(2H)-pyridazinone]
37 | 145 to 147 | CC(C)C(=O)Nc1ncc(-c2ccc(=O)n(C(C)C)n2)c(-c2ccccc2)n1 [Example 163, N-[5-(1-isopropyl-6-oxo-1,6-dihydro-3-pyridazinyl)-4-phenyl-2-pyrimidinyl]-2-methylpropanamide]
38 | 138 to 141 | CC(C)n1nc(-c2cnc(NC(=O)C(C)(C)C)nc2-c2ccccc2)ccc1=O [Example 176, N-[5-(1-isopropyl-6-oxo-1,6-dihydro-3-pyridazinyl)-4-phenyl-2-pyrimidinyl]-2,2-dimethylpropanamide]
39 | 159 | CC(C)n1nc(-c2cnc(N(C(=O)c3ccc(C(F)(F)F)cc3)C(=O)c3ccc(C(F)(F)F)cc3)nc2-c2ccccc2)ccc1=O [Example 183, N-[5-(1-isopropyl-6-oxo-1,6-dihydro-3-pyridazinyl)-4-phenyl-2-pyrimidinyl]-4-(trifluoromethyl)-N-[4-(trifluoromethyl)benzoyl]benzamide]
